± gives the uncertainty stated by the source.
Assay: xn = mol fraction of the nth substance listed
Settings: for electrical conductivity: 293.2 K

CCOP(=O)([O-])OCC.CC[N+]1(C)CCCC1 + CCO
viscosity [mPa·s], 100 kPa
Settings	293.15 K	298.15 K	303.15 K	308.15 K	313.15 K	318.15 K	323.15 K	328.15 K	333.15 K	338.15 K
x1 = 0.1003	3.85 ± 0.23	3.4 ± 0.21	2.99 ± 0.18	2.66 ± 0.16	2.35 ± 0.14	2.07 ± 0.13	1.83 ± 0.11	1.67 ± 0.1	1.5 ± 0.09	1.44 ± 0.09
x1 = 0.2001	8.78 ± 0.53	7.84 ± 0.47	6.91 ± 0.42	6.2 ± 0.38	5.58 ± 0.34	5.06 ± 0.31	4.67 ± 0.28	4.27 ± 0.26	3.94 ± 0.24	3.62 ± 0.22
x1 = 0.3004	18.4 ± 1.1	15.67 ± 0.95	13.37 ± 0.81	11.53 ± 0.7	9.97 ± 0.61	8.78 ± 0.53	7.86 ± 0.48	7.13 ± 0.43	6.55 ± 0.4	6.04 ± 0.37
x1 = 0.4001	39.8 ± 2.4	29.8 ± 1.8	24.8 ± 1.5	20.6 ± 1.3	17.7 ± 1.1	15.24 ± 0.93	13.14 ± 0.8	11.6 ± 0.71	10.25 ± 0.63	9.19 ± 0.56
x1 = 0.4997	66.9 ± 4.1	52.7 ± 3.2	42.3 ± 2.6	34.5 ± 2.1	28.5 ± 1.8	23.8 ± 1.5	20.3 ± 1.3	17.4 ± 1.1	14.99 ± 0.92	13.17 ± 0.81
x1 = 0.6002	116.3 ± 7.4	88.7 ± 5.6	68.7 ± 4.3	54.9 ± 3.4	43.9 ± 2.7	35.2 ± 2.2	29.3 ± 1.8	24.6 ± 1.5	20.7 ± 1.3	17.9 ± 1.1
x1 = 0.7001	180 ± 12	133.7 ± 8.7	102.4 ± 6.6	78.8 ± 5	62.3 ± 3.9	49.5 ± 3.1	39.7 ± 2.5	32.8 ± 2.1	27 ± 1.7	22.6 ± 1.4
x1 = 0.8011	265 ± 19	193 ± 13	143.7 ± 9.5	109.7 ± 7.1	83 ± 5.3	66.1 ± 4.2	51.9 ± 3.3	42.1 ± 2.7	34.3 ± 2.2	28.3 ± 1.8
x1 = 0.8985	334 ± 24	237 ± 17	173 ± 12	130.1 ± 8.7	98.4 ± 6.4	75.6 ± 4.9	59.5 ± 3.8	47.3 ± 3	37.8 ± 2.4	30.9 ± 2
x1 = 1	441 ± 34	307 ± 22	220 ± 15	164 ± 11	121.4 ± 8.1	92.7 ± 6.1	73 ± 4.8	56.2 ± 3.7	44.4 ± 2.9	36.3 ± 2.4

CC[N+](CC)=C(N(C)C)N(C)C.O=S(=O)([N-]S(=O)(=O)C(F)(F)F)C(F)(F)F + CCO
viscosity [mPa·s], 101 kPa
Settings	293.15 K	298.15 K	303.15 K	308.15 K	313.15 K	318.15 K	323.15 K
x1 = 0.0004697	1.188 ± 0.072	1.083 ± 0.065	0.985 ± 0.06	0.895 ± 0.054	0.825 ± 0.05	0.758 ± 0.046	0.701 ± 0.042
x1 = 0.0008976	1.203 ± 0.073	1.096 ± 0.066	0.996 ± 0.06	0.905 ± 0.055	0.834 ± 0.05	0.766 ± 0.046	0.708 ± 0.043
x1 = 0.002294	1.228 ± 0.074	1.119 ± 0.068	1.016 ± 0.061	0.922 ± 0.056	0.849 ± 0.051	0.78 ± 0.047	0.72 ± 0.044
x1 = 0.004714	1.266 ± 0.077	1.146 ± 0.069	1.04 ± 0.063	0.945 ± 0.057	0.871 ± 0.053	0.8 ± 0.048	0.738 ± 0.045
x1 = 0.009053	1.318 ± 0.08	1.197 ± 0.072	1.088 ± 0.066	0.987 ± 0.06	0.909 ± 0.055	0.835 ± 0.05	0.772 ± 0.047
x1 = 0.018	1.438 ± 0.087	1.304 ± 0.079	1.185 ± 0.072	1.075 ± 0.065	0.989 ± 0.06	0.909 ± 0.055	0.839 ± 0.051
x1 = 0.02647	1.561 ± 0.094	1.414 ± 0.086	1.282 ± 0.078	1.162 ± 0.07	1.069 ± 0.065	0.981 ± 0.059	0.904 ± 0.055
x1 = 0.03521	1.7 ± 0.1	1.537 ± 0.093	1.394 ± 0.084	1.263 ± 0.077	1.156 ± 0.07	1.061 ± 0.064	0.98 ± 0.059
x1 = 0.04396	1.85 ± 0.11	1.66 ± 0.1	1.502 ± 0.091	1.363 ± 0.083	1.253 ± 0.076	1.149 ± 0.07	1.06 ± 0.064
x1 = 0.05173	1.99 ± 0.12	1.79 ± 0.11	1.612 ± 0.098	1.459 ± 0.089	1.327 ± 0.08	1.218 ± 0.074	1.121 ± 0.068
x1 = 0.06055	2.15 ± 0.13	1.92 ± 0.12	1.73 ± 0.11	1.564 ± 0.095	1.419 ± 0.086	1.304 ± 0.079	1.199 ± 0.073
x1 = 0.07263	2.38 ± 0.15	2.12 ± 0.13	1.91 ± 0.12	1.72 ± 0.1	1.557 ± 0.095	1.423 ± 0.086	1.306 ± 0.079
x1 = 0.08417	2.61 ± 0.16	2.32 ± 0.14	2.08 ± 0.13	1.87 ± 0.11	1.69 ± 0.1	1.542 ± 0.094	1.412 ± 0.086
x1 = 0.1028	2.97 ± 0.18	2.65 ± 0.16	2.37 ± 0.14	2.13 ± 0.13	1.92 ± 0.12	1.75 ± 0.11	1.592 ± 0.097
x1 = 0.1216	3.38 ± 0.21	3.01 ± 0.18	2.69 ± 0.16	2.42 ± 0.15	2.18 ± 0.13	1.96 ± 0.12	1.77 ± 0.11

101 kPa
Settings	electrical conductivity [S/m]
x1 = 0.0004697	0.0209 ± 0.0005
x1 = 0.0008976	0.0341 ± 0.0007
x1 = 0.002294	0.0657 ± 0.0014
x1 = 0.004714	0.109 ± 0.002
x1 = 0.009053	0.167 ± 0.004
x1 = 0.018	0.278 ± 0.006
x1 = 0.02647	0.393 ± 0.009
x1 = 0.03521	0.477 ± 0.01
x1 = 0.04396	0.552 ± 0.012
x1 = 0.05173	0.591 ± 0.012
x1 = 0.06055	0.661 ± 0.014
x1 = 0.07263	0.716 ± 0.015
x1 = 0.08417	0.756 ± 0.016
x1 = 0.1028	0.848 ± 0.018
x1 = 0.1216	0.904 ± 0.019

CCC(C)O (stereo unspecified) + CCOS(=O)(=O)[O-].CC[n+]1ccn(C)c1
Settings	viscosity [mPa·s]
308.15 K, 101 kPa, x2 = 0	2 ± 0.6

O=C([O-])c1ccccc1.[Na+] + CCOS(=O)(=O)[O-].CC[n+]1ccn(C)c1 + O
viscosity [mPa·s], 101.3 kPa
Settings	293.15 K	298.15 K	303.15 K	308.15 K	313.15 K
x1 = 0.0001784, x2 = 0	1.009 ± 0.071	0.897 ± 0.071	0.803 ± 0.071	0.727 ± 0.071	0.651 ± 0.07
x1 = 0.0001804, x2 = 0.001795	1.079 ± 0.071	0.966 ± 0.071	0.851 ± 0.071	0.757 ± 0.071	0.685 ± 0.071
x1 = 0.0001842, x2 = 0.002697	1.114 ± 0.071	0.994 ± 0.071	0.883 ± 0.071	0.795 ± 0.071	0.716 ± 0.071
x1 = 0.0001899, x2 = 0.003589	1.144 ± 0.071	1.024 ± 0.071	0.907 ± 0.071	0.819 ± 0.071	0.735 ± 0.071
x1 = 0.0005403, x2 = 0	1.014 ± 0.071	0.903 ± 0.071	0.809 ± 0.071	0.733 ± 0.071	0.657 ± 0.07
x1 = 0.0005539, x2 = 0.001794	1.086 ± 0.071	0.973 ± 0.071	0.858 ± 0.071	0.764 ± 0.071	0.692 ± 0.071
x1 = 0.0005579, x2 = 0.002696	1.121 ± 0.071	1.001 ± 0.071	0.89 ± 0.071	0.802 ± 0.071	0.723 ± 0.071
x1 = 0.0005619, x2 = 0.003587	1.151 ± 0.071	1.032 ± 0.071	0.915 ± 0.071	0.827 ± 0.071	0.743 ± 0.071
x1 = 0.0009002, x2 = 0	1.019 ± 0.071	0.908 ± 0.071	0.814 ± 0.071	0.738 ± 0.071	0.662 ± 0.07
x1 = 0.0009234, x2 = 0.001794	1.092 ± 0.071	0.979 ± 0.071	0.864 ± 0.071	0.77 ± 0.071	0.698 ± 0.071
x1 = 0.0009314, x2 = 0.002695	1.128 ± 0.071	1.008 ± 0.071	0.897 ± 0.071	0.809 ± 0.071	0.73 ± 0.071
x1 = 0.0009412, x2 = 0.003586	1.158 ± 0.071	1.039 ± 0.071	0.922 ± 0.071	0.834 ± 0.071	0.75 ± 0.071
x1 = 0.001258, x2 = 0	1.024 ± 0.071	0.913 ± 0.071	0.819 ± 0.071	0.743 ± 0.071	0.667 ± 0.07
x1 = 0.001287, x2 = 0.001793	1.098 ± 0.071	0.984 ± 0.071	0.869 ± 0.071	0.776 ± 0.071	0.703 ± 0.071
x1 = 0.001299, x2 = 0.002694	1.134 ± 0.071	1.014 ± 0.071	0.903 ± 0.071	0.815 ± 0.071	0.737 ± 0.071
x1 = 0.001311, x2 = 0.003585	1.165 ± 0.071	1.047 ± 0.071	0.929 ± 0.071	0.841 ± 0.071	0.757 ± 0.071
x1 = 0.001619, x2 = 0	1.029 ± 0.071	0.918 ± 0.071	0.824 ± 0.071	0.748 ± 0.071	0.672 ± 0.071
x1 = 0.001651, x2 = 0.001792	1.103 ± 0.071	0.99 ± 0.071	0.875 ± 0.071	0.781 ± 0.071	0.709 ± 0.071
x1 = 0.001674, x2 = 0.002693	1.14 ± 0.071	1.02 ± 0.071	0.91 ± 0.071	0.821 ± 0.071	0.742 ± 0.071
x1 = 0.001689, x2 = 0.003583	1.172 ± 0.072	1.053 ± 0.071	0.936 ± 0.071	0.848 ± 0.071	0.764 ± 0.071
x1 = 0.001978, x2 = 0	1.034 ± 0.071	0.923 ± 0.071	0.829 ± 0.071	0.753 ± 0.071	0.677 ± 0.071
x1 = 0.002025, x2 = 0.001792	1.108 ± 0.071	0.997 ± 0.071	0.881 ± 0.071	0.786 ± 0.071	0.715 ± 0.071
x1 = 0.002045, x2 = 0.002692	1.146 ± 0.071	1.027 ± 0.071	0.915 ± 0.071	0.827 ± 0.071	0.748 ± 0.071
x1 = 0.002068, x2 = 0.003582	1.178 ± 0.072	1.059 ± 0.071	0.943 ± 0.071	0.854 ± 0.071	0.77 ± 0.071
